# Reference: patent US20250114335A1, “METHODS AND COMPOSITIONS FOR THE TREATMENT OF EPILEPSY” (ARIZONA BOARD OF REGENTS ON BEHALF OF THE UNIVERSITY OF …, priority 2022, published 2025)
# Tests used:
# Format in all cases: in vivo, mouse
# [1] = system: C3H-D/D (Scn8a-N1768D) adult mice; assay: Survival and seizure frequency, adult C3H-D/D mice followed until death; conditions: for observed standard effect size, Kaplan-Meier survival: treated versus untreated
# From the text: (§1) Mouse strains: The C57BL/6J-N1768D congenic mouse (B6-D/+) was used for phenotyping, RNAseq, and BBB studies. In addition, a hybrid strain that was produced by backcross breeding to transfer the Scn8a-N1768D allele from the B6 to the C3H/HeJ strain background was used to further assess the effect of CND on survival and seizure frequency. After constructing an F1 by crossing male B6-D/+ heterozygotes to female C3H/HeJ, five rounds of backcrossing (N6) produced a […] and 98.5% C3H/HeJ-N1768D line (C3H-D/+). Sister-brother mating maintained the 98.5% C3H background. […] C3H-D/D mice have a delayed seizure onset (˜40-45 days) and an extended survival (65-70 days) with intermittent bouts of TCs (FIG. 1A).
# (§2) Phenotyping: Female and male mice on both the B6 and C3H backgrounds were housed in sex-specific groups of 3-4 per cage in a pathogen-free mouse facility with a 14 h light/10 h dark cycle (lights turned on at 5 am). A 24/7 video monitoring system was utilized to collect seizure data, with infrared illumination to monitor behavior during the dark period. Seizures were counted as individual TCs. Adult mice were followed from the age of 6 weeks, a period of time well before seizure onset, in order to identify the day of seizure onset. A seizure bout was defined as a cluster of seizures on consecutive days, and a gap as a seizure-free period of 3 days or more.
# (§3) Preparation of CND suspension for injections and oral dosing: Juvenile B6-D/D and adult B6-D/+ mice were given subcutaneous (s.c.) injections with either CND (2-4 mg/kg/day; doses that fall within the FDA-approved range for CND in both adults and children) or vehicle (VEH) (Sigma-Aldrich) (FIG. 1B). Oral dosing of adults was performed by thoroughly mixing 160 μl of suspension containing 1.28 mg of CND or VEH with 5 g of pure (organic) peanut butter in a petri dish. Mice were given 1 g pellet per mouse each day. Pellets were weighed each day to record the amount consumed, and 24/7 video was used to verify that each mouse was consuming the pellet. An average of 0.79 g (±0.36 g) was consumed by an adult mouse (˜20-25 g), corresponding to 9.1±4.2 mg/kg/day. No correlations were found for the amount of CND consumed and lifetime survival or number of TCs.
# Data for the untreated mice were previously reported. Table 1 also provides C3H-D/D summary statistics for female untreated (N=15) and treated (N=15) and male untreated (N=27) and treated (N=16) monitored until the time of death.
# [2] = system: B6-D/D (Scn8a-N1768D) juvenile mice; assay: Survival and seizure frequency, B6-D/D juvenile mice; conditions: for Age at Death: daily s.c. injection
# From the text: as §1, §2, §3
# Survival and seizure frequency studies: B6-D/D mice were injected with CND (n=10) or VEH (n=10) at 15 days of age (P15) and followed to monitor TCs by 24/7 video recording until death (FIG. 1B). A separate set of 10 B6-D/D mice was administered a daily s.c. injection of 25 mg/kg/day phenytoin (PHT) suspension or VEH (US Pharmacopeia, Sigma-Aldrich). Oral administration of CND or VEH was initiated at the time of seizure onset (range P75-P85) for adult B6-D/+ females (N=10) and males (N=10) (FIG. 1B). Mice were monitored for seizures by 24/7 video recording until the time of death.
# [3] = system: hippocampal gene expression; assay: RNAseq and pathway analysis of hippocampal tissue, B6-D/D juveniles
# Method: (§4) Transcriptome studies: B6-D/D and wild-type (+/+) (n=3) were administered CND or VEH by s.c. injection for a period of 5 days starting at P15 and sacrificed for removal of hippocampal tissue (n=12) (FIG. 1B). Adult B6-D/+ male (n=3) mice were administered CND or VEH pellets as described above at the time of seizure onset and monitored for seizures for an extended period before sacrifice and removal of hippocampal tissue (100-160 d) (i.e., to match the age at which a VEH-treated male B6-D/+ experience ˜20 TCs) (FIG. 1B).
# (§5) RNA sequencing: Hippocampal tissues from 21 mice were obtained according to a sampling strategy that compared (1) untreated (VEH only) and treated B6-D/D (n=3) with age-matched B6-+/+ controls (n=3 per group), (2) untreated (VEH only) male B6-D/+ mice that had experienced ˜20 TCs (n=3 per group) with age-matched B6-+/+ controls (n=3 per group), and (3) male B6-D/+ mice that were treated with CND for an extended period (n=3 per group). Brains of treated and untreated mice were dissected to yield tissue samples from the hippocampus. Bulk tissue was stored in RNALater (Qiagen, Valencia, CA) at −80 degrees centigrade. The technique for analyzing hippocampal gene expression was performed. Briefly, RNA was isolated from hippocampal tissue, and initial QC was performed. Libraries were constructed using a stranded mRNA-Seq Kit, and average fragment size was assessed. After concentrations were determined with an adaptor-specific qPCR kit, equimolar samples were pooled and clustered for sequencing on a Novaseq instrument (Illumina). Sample data were demultiplexed, trimmed, and quality filtered, and Fastq files were splice-aligned against the […] reference genome using STAR aligner version 2.5.2b. Gene expression counts were obtained using htseq-count version 0.6.1. Both splice alignment and counting were performed with Ensembl Annotation of the NCBI reference genome, and raw counts were analyzed with edgeR version 3.16.5.
# (§6) Data and pathway analysis: Results of statistical summaries were generally expressed as mean±SD. Kaplan-Meier survival curves were used to test for differences in survival. […] A ‘perturbation signature’ approach was used to identify genome-wide differences in transcript abundance between transgenic mice (i.e., D/+, D/D, or +/+) that were untreated (VEH) or treated with CND. Differential expression analysis was performed. Briefly, the exactTest function was utilized in edgeR, and gene expression counts were first normalized using the calcNormFactors function. DEG analysis was performed on treatment versus control groups at two different ages using three biological replicates per group, which has been shown in power analyses to be sufficient to yield a true positive rate greater than 80% under the conditions used here. Multidimensional scaling (MDS) plots were constructed using the ‘plotMDS’ function in edgeR, which plots samples on a 2D scatterplot so that distances on the plot approximate the typical log 2 fold changes between samples. […] Rather than focusing on any single gene, bioinformatic analyses of our RNAseq data identified the most statistically significant biological pathways that were enriched given the set of DEGs in each experiment.
# [4] = system: hippocampal gene expression; assay: RNAseq and pathway analysis of hippocampal tissue, B6-D/+ adult males
# Method: as §4, §5, §6
# [5] = B6-D/D juveniles, Treated, listed as CDN
# [6] = CND-treated B6-D/D, FDR-adjusted P-value <0.05
# [7] = treated juveniles, FDR cutoff 0.25
smiles,measurement,setting,value
"CCOc1nc2cccc(C(=O)O)c2n1Cc1ccc(-c2ccccc2-c2nnn[nH]2)cc1 [CND, candesartan]",gap days,"[1]; C3H Males (D/D), Treated",44.4 days
same,mean gap length,"[1]; C3H Males (D/D), Treated",4.7 days
same,"increase in survival, treated versus untreated",[1]; C3H-D/D females,47.5%
same,reduction in post-onset seizure frequency,[1]; C3H-D/D females,78.4%
same,"observed standard effect size, Kaplan-Meier survival",[1]; C3H-D/D females,0.83
same,"increase in survival, treated versus untreated",[1]; C3H-D/D males,49.2%
same,reduction in post-onset seizure frequency,[1]; C3H-D/D males,48.0%
same,"observed standard effect size, Kaplan-Meier survival",[1]; C3H-D/D males,0.79
same,days surviving longer than untreated,[2]; B6-D/D,6.3 days
same,reduction in seizure frequency,[2]; B6-D/D Juveniles,45.8%
same,#TCs,"[2]; B6-D/D juveniles, Treated",119.0 TCs
same,#TCs/day (Life),"[2]; B6-D/D juveniles, Treated",0.09 TCs/day
same,#TCs/day (PostTC),"[2]; B6-D/D juveniles, Treated",15.4±10.3 TCs/day
same,#gaps,"[2]; B6-D/D juveniles, Treated",0.9
same,Age at Onset,"[2]; B6-D/D juveniles, Treated",21.4
same,Days with TCs,"[2]; B6-D/D juveniles, Treated",7.2 days
same,gap days,"[2]; B6-D/D juveniles, Treated",4.3 days
same,mean gap length,"[2]; B6-D/D juveniles, Treated",3.4
same,Age at Death,"[2]; B6-D/D juveniles, Treated",31.8 ± 2.7 days
same,Age at Death,[2]; [5],31.8 days
same,#TCs/day (PostTC),[2]; [5],15.4 TCs/day
same,increase in survival of juveniles,"[2]; B6-D/D juveniles, treated versus VEH",27%
same,"observed standard effect size, Kaplan-Meier survival","[2]; B6-D/D juveniles, treated versus untreated (VEH only)",0.79
same,"TREATED z-score, upstream regulator ACKR2",[3]; B6-D/D Juveniles,−2.00
same,"TREATED z-score, upstream regulator IL1B",[3]; B6-D/D Juveniles,1.76
same,"TREATED z-score, upstream regulator PTGER4",[3]; B6-D/D Juveniles,−2.43
same,"TREATED z-score, upstream regulator SIRT1",[3]; B6-D/D Juveniles,−2.83
same,"TREATED z-score, upstream regulator TGFB1",[3]; B6-D/D Juveniles,0.42
same,"TREATED z-score, upstream regulator TNF",[3]; B6-D/D Juveniles,1.32
same,"TREATED z-score, upstream regulator lipopolysaccharide",[3]; B6-D/D Juveniles,3.19
same,number of down-regulated DEGs,[3]; [6],25
same,number of up-regulated DEGs,[3]; [6],50
same,"z-score, EIF2 Signaling pathway",[3]; [7],3.2
same,"z-score, Granzyme A Signaling pathway",[3]; [7],−3.4
same,"z-score, Mitochondrial Dysfunction pathway",[3]; [7],−3.8
same,"z-score, Oxidative Phosphorylation pathway",[3]; [7],5.0
same,"odds ratio, enhancement of ETC gene activation in treated versus untreated","[3]; treated juveniles, FDR≤0.25, 95% CI=3.5-979",23 fold
same,"TREATED z-score, upstream regulator ERBB2",[4]; B6-D/+ Adult males,−2.00
same,"TREATED z-score, upstream regulator NUPR1",[4]; B6-D/+ Adult males,−2.00
same,"TREATED z-score, upstream regulator PTGS2",[4]; B6-D/+ Adult males,-2.8
same,number of canonical pathways predicted to be activated,[4]; CND-treated B6-D/+ adult males,11
same,number of canonical pathways predicted to be deactivated,[4]; CND-treated B6-D/+ adult males,3
same,number of enriched canonical pathways,[4]; CND-treated B6-D/+ adult males,14
same,number of DEGs,[4]; CND-treated B6-D/+ males,86
same,number of down-regulated DEGs,[4]; CND-treated B6-D/+ males,10
same,number of up-regulated DEGs,[4]; CND-treated B6-D/+ males,76
